Legend:
microbial growth = experiment: Biological testing according to ASTM E2275; type: cell-based; details: 3-amino-4-octanol in solution at 6 total weight percent at higher
Text: The solutions of Examples 1 and 3 and Comparative Examples A and B are subjected to biological testing according to ASTM E2275.

[1] = standard temperature and pressure (STP); cited from earlier work

SMILES: CCCCC(O)C(N)CC (centres unmarked) [3-amino-4-octanol]
- resistance to microbial growth (microbial growth): enhanced resistant to microbial growth
- solubility of 3-amino-4-octanol in water [1]: about 4.5 percent by weight

Reference: patent US12559696B2, “Amine containing aqueous fluids and method of producing same” (Illinois Tool Works Inc., priority 2023, dated 2026)
